According to publication PMC3684613 (PLoS ONE, 2013):
Like-named read-outs stand apart in the source and are kept apart here.

Columns and labels:
P. falciparum 3D7 [1] = tested on: P. falciparum 3D7; set-up: method as in ChEMBL-NTD; details: ref ChEMBL-NTD, cited from earlier work
P. falciparum 3D7 [2] = experiment: DAPI stain fluorescent high content imaging assay, P. falciparum 3D7 (confirmatory screen, Avery); details: Plasmodium falciparum; for EC50: 3D7, read-out: EC50_nM; for inhibition of growth at 5 µM: 3D7, read-out: percent_inh @ 5 uM
[3] = values follow the order of the source (GNF; GSK; StJude)

SMILES | EC50 (P. falciparum 3D7 [2]) [nM] | inhibition of growth at 5 µM (P. falciparum 3D7 [2]) [%] | further results
Cc1cc(NCCN2CCCCC2)c2ccc3ccccc3c2n1 [MMV006203] | 300 | 99 | EC50 (P. falciparum 3D7 [1]; source GNF (GNF-Pf id)): 44.1 nM
CC(C)CCNCC(O)Cn1c2ccccc2c2ccccc21 (stereo not drawn) [MMV006787] | 473 | 97 | EC50 (P. falciparum 3D7 [1]; source GNF (GNF-Pf ids)): 201 nM
O=C(Nc1nc(-c2ccccn2)cs1)c1ccccc1Br [MMV665909] | 1360 | 97 | EC50 (P. falciparum 3D7 [1]; source StJude): 4530 nM
CC(C)(C)c1ccc2c(c1)CN(Cc1ccc(Cl)cc1)CO2 [MMV000442] | 362 | 98 | EC50 (P. falciparum 3D7 [1]; source StJude (SJ ids)): 255 nM
CCOc1ccccc1CNC(=O)C1c2ccccc2C(=O)N(CC(C)C)C1c1cccs1 (stereo not drawn) [MMV000653] | 1320 | 97 | EC50 (P. falciparum 3D7 [1]; source StJude): 1430 nM
Cc1cc(Nc2ccc(C)c(Cl)c2)n2nc(C(F)(F)F)nc2n1 [MMV665874] | 6.71 | 98 | EC50 (P. falciparum 3D7 [1]; source GSK (TCMDC id)): 15.8 nM
CC(=O)c1sc(NC(=O)Nc2ccc(C)cc2C)nc1C [MMV665894] | 536 | 64 | EC50 (P. falciparum 3D7 [1]; [3]): 906 nM
Nc1ccc(-c2nc3cc(Oc4ccc(Oc5ccc6[nH]c(-c7ccc(N)cc7)nc6c5)cc4)ccc3[nH]2)cc1 [MMV011895] | 842 | 97 | EC50 (P. falciparum 3D7 [1]; source GNF): 288 nM
CCCCNCC(O)(c1ccc(Cl)cc1)c1ccc(Cl)cc1 [MMV665929] | 843 | 97 | EC50 (P. falciparum 3D7 [1]; source GNF): 720 nM
Cn1c(=O)c2cc(C(=O)NCCCN3CCCCCC3)sc2c2ccccc21 [MMV019313] | 669 | 97 | EC50 (P. falciparum 3D7 [1]; source GSK): 689 nM
COc1ccccc1CNC(=O)CCn1c(=O)[nH]c2ccsc2c1=O [MMV019066] | 140 | 67 | EC50 (P. falciparum 3D7 [1]; source GSK (TCMDC id)): 1040 nM
COc1cccc(-c2nn(C)c3sc(C(=O)NCCN4CCN(c5ccccc5F)CC4)cc23)c1 [MMV019064] | 1300 | 91 | EC50 (P. falciparum 3D7 [1]; source GSK): 955 nM
CCCCCn1c(=N)n(CC(O)COc2cccc(C)c2)c2ccccc21 (stereo not drawn) [MMV000444] |  | 96 | EC50 (P. falciparum 3D7 [1]; source StJude (SJ ids)): 2650 nM
COc1ccc2c(c1)OC(O)(C(F)(F)C(F)(F)F)CC2=O (stereo not drawn) [MMV007839] | 283 |  | EC50 (P. falciparum 3D7 [1]; source GNF (GNF-Pf id)): 442 nM
CCOc1ccc(-c2nc(NC(=O)c3cccc(S(C)(=O)=O)c3)sc2C)cc1 [MMV665913] |  | 95 | EC50 (P. falciparum 3D7 [1]; source StJude): 15000 nM
CCOC(=O)c1ccc2nc(-c3ccccc3)cc(O)c2c1 [MMV006457] | 118 | 96 | EC50 (P. falciparum 3D7 [1]; source GNF (GNF-Pf id)): 549 nM
CCOC(=O)c1cnc2ccc(OC)cc2c1NCc1ccccc1 [MMV665813] |  | 87 | EC50 (P. falciparum 3D7 [1]; [3]): 2770 nM
O=C(NC1CCCC1)c1ccc(N2CCC(NCc3cccc(C(F)(F)F)c3)CC2)cc1 [MMV666070] |  | 93 | EC50 (P. falciparum 3D7 [1]; source GSK): 1330 nM
COc1ccc(C(=O)Nc2nonc2-c2ccc(OC)c(OC)c2)cc1Cl [MMV011567] | 516 | 92 | EC50 (P. falciparum 3D7 [1]; source GNF): 1780 nM; EC50 (P. falciparum 3D7 [1]; source GSK): 675 nM
O=C(NCC1Cc2cccc(-c3ccncc3)c2O1)c1csc2c1CCCC2 (stereo not drawn) [MMV665954] | 1720 | 87 | EC50 (P. falciparum 3D7 [1]; source StJude): 8740 nM
Cc1ccc(-c2nc3ccccc3o2)cc1NCc1cc(Cc2ccccc2)ccc1O [MMV020912] |  | 64 | EC50 (P. falciparum 3D7 [1]; [3]): 1030 nM
Cc1cc(=O)oc2c1ccc1oc(C(=O)c3ccccc3)c(C)c12 [MMV006753] |  | 94 | EC50 (P. falciparum 3D7 [1]; source GNF (GNF-Pf ids)): 441 nM
CCC(c1ccccc1)c1nn2c(-c3cccs3)nnc2s1 (stereo not drawn) [MMV665876] | 259 | 99 | EC50 (P. falciparum 3D7 [1]; source GSK (TCMDC id)): 167 nM
COc1ccc(CCn2c(=N)c(C(=O)NCc3cccnc3)cc3c(=O)n4cccc(C)c4nc32)cc1 [MMV667488] | 373 |  | EC50 (P. falciparum 3D7 [1]; [3]): 1400 nM
CCCCCCc1cc2cc(-c3nc4ccccc4[nH]3)c(=Nc3ccccc3C)oc2cc1O [MMV666597] | 551 | 96 | EC50 (P. falciparum 3D7 [1]; [3]): 2120 nM
CCn1c2c(c(=N)c3c1CCC3)CCCC2 [MMV000340] | 694 | 77 | EC50 (P. falciparum 3D7 [1]; [3]): 3120 nM
N=c1c2ccccc2nnn1-c1cccc(C(F)(F)F)c1 [MMV665923] |  | 83 | EC50 (P. falciparum 3D7 [1]; source GNF (GNF-Pf ids)): 134 nM
COc1ccc(Br)cc1C1Nc2ccc3ccccc3c2C2=C1C(=O)CC(c1ccccc1)C2 (stereo not drawn) [MMV020885] | 180 | 95 | EC50 (P. falciparum 3D7 [1]; source GSK (TCMDC id)): 590 nM
FC(F)(F)c1cccc(Nc2nc(-c3ccccc3)nc3ncccc23)c1 [MMV665798] |  | 74 | EC50 (P. falciparum 3D7 [1]; source GSK): 802 nM
